# Read-outs that look alike come from different tables or passages of the source.
# How the values were obtained:
# tear flow [1] = experiment: Tear flow, phenol red thread (modified Schirmer's test) after ocular instillation; format: in vivo, mice; conditions: for Effect on tear flow: topical administration to the eyes of laboratory animals; for Tear flow, length of red area of thread, Mean ± SEM: 0.07% solution, 0.05 mL twice daily, 45 min after 5th instillation, N=8
# Description: All instillations were performed twice daily and consisted of 0.05 mL. A total of five instillations were administered. Tear measurements were performed 45 minutes after the first drug instillation on Day 3, by carefully placing the bent end of a Zone-Quick phenol red impregnated cotton thread (FCI Ophthalmics, Pembrooke, Mass.) at the intercanthus of the eye and holding it in place for 30 seconds. After removal, the length of the red area of the thread was measured in millimeters. During tear measurements, all animals were lightly anesthetized with isoflurane in order to reduce movement and stress.
# histamine wheal response = experiment: Antihistaminic activity in vivo: histamine-induced wheal after oral dosing; design: species or system rats
# Description: Male rats (150-200 g) were starved overnight and twelve hours after dorsal depilation, the animals were orally pretreated with the test compound(s). Four dorsal test areas were marked with permanent ink, carefully avoiding the area closest to the spine. Exactly 60 min after the dosing of the test compound, two intradermal injections of histamine (50 microliter; 1.0 mg/ml of histamine di-HCl) were performed, one on each side on the back of the animal. Two intradermal injections of the vehicle for the histamine solution were also performed. Evans blue dye (20 mg/kg) was injected iv 1 minute prior to the intra-dermal injections of histamine and the histamine vehicle. Twenty minutes were allowed for the wheal response to fully develop, whereupon the animals were euthanized and the dorsal skin containing the intradermal wheals were deflected. The blue spotted areas were measured in square millimeters and the duplicate vehicle wheal responses were averaged. In vehicle-treated animals, the wheal area, on average, was increased by histamine by 98 mm^2. The inhibition was calculated in percent difference from this baseline value.
# Maximal solubility = format: physicochemical
# Text: Ocular formulations of norketotifen to be used by individuals suffering from a dry eye syndrome may be hypotonic or isotonic. Thus, the acceptable osmolality may range from about 150 mOsm to about 350 mOsm.
# [2] = molecular target: muscarinic receptors (antimuscarinic activity); conditions: Wolff et al. 2007; cited from earlier work
# tear flow [3] = conditions: U.S. Pat. No. 7,247,623; cited from earlier work
compound,measurement,setting,value
O=C1Cc2ccccc2C(=C2CCNCC2)c2ccsc21 (racemic) [Norketotifen],Statistical significance of effect in modified Schirmer's test,tear flow [1]; 45 minutes after the 5th treatment,statistically significant effects
same,Effect on tear flow,tear flow [1],increase tear flow
same,inhibition at 1 mg/kg,"histamine wheal response; Rattus norvegicus, 1 mg/kg oral, versus vehicle histamine effect",6%
same,inhibition at 10 mg/kg,"histamine wheal response; Rattus norvegicus, 10 mg/kg oral, versus vehicle histamine effect",83%
same,Absorption after oral administration,"histamine wheal response; rats, oral",well absorbed
"CN1CCC(=C2c3ccccc3CC(=O)c3sccc32)CC1.O=C(O)/C=C/C(=O)O [KETOTIFEN HF, reference compound]","Tear flow, length of red area of thread, Mean ± SEM",tear flow [1],4.25 ± 0.250 mm
"CN1CCC(=C2c3ccccc3CC(=O)c3sccc32)CC1 [Ketotifen, reference compound]",Effect on tear flow,tear flow [1],not to increase tear flow
O=C(O)/C=C/C(=O)O.O=C1Cc2ccccc2C(=C2CCNCC2)c2ccsc21 [norketotifen hydrogen fumarate],Maximal solubility,Maximal solubility; in saline,4500 µg/mL
same,Maximal solubility,Maximal solubility; in water,2700 µg/mL
same,"Tear flow, length of red area of thread, Mean ± SEM",tear flow [1],4.62 ± 0.263 mm
CN(C)CC/C=C1/c2ccccc2COc2ccc(CC(=O)O)cc21 [olopatadine],IC50,[2],1740 nM
same,Effect on tear flow,tear flow [3],reduce tear flow

# Reference: patent US8741930B2 (Bridge Pharma, Inc., priority 2008, dated 2014)
